Reference: patent publication US7393834B2, “LHRH-antagonists in the treatment of fertility disorders” (AEterna Zentaris GmbH, priority 1996, dated 2008)
“Also recorded” adds a separate entry of the source. Where a SMILES comes first, the peptide text is derived from it. [ ]: non-standard residue; d: D form. dPhe(4-Cl) = N[C@H](Cc1ccc(Cl)cc1)C(=O)O; d2Nal = N[C@H](Cc1ccc2ccccc2c1)C(=O)O; dCit = NC(=O)NCCC[C@@H](N)C(=O)O; d3Pal = N[C@H](Cc1cccnc1)C(=O)O

What was measured:
premature LH surge = assay: Phase II clinical trial of Cetrorelix in controlled ovarian stimulation (COS/ART); format: in vivo, human; conditions: for babies born by the end of May 1996: by end of May 1996; for minimal effective dose, Dose/Day / no effect dose, Dose/Day: phase II dose finding
Experimental: The results of a phase II clinical trial are shown in Table I. A total of […] patients were treated.
During multiple dosing, the mean days of Cetrorelix application is 6 days. 25 babies were born by the end of May 1996 (7 following multiple doses; 18 following single/dual doses).
The hormone levels of luteinizing hormone (LH) (μg/l) (∘), follicular stimulating hormone (FSH) (μg/l) (+), progesterone (μg/l) (●), and oestradiol (E2) (ng/l) (▾) were measured in patient number 21L07 at time intervals one month (Nov. 10, 1995) and four consecutive days before (Dec. 05, 1995-Dec. 09, 1995) a dual dose regimen of Cetrorelix (3 mg) was administered subcutaneously on Dec. 10, 1995 and Dec. 11, 1995. The patient's LH, FSH, progesterone and oestradiol levels were measured afterward between Dec. 11, 1995 and Dec. 14, 1995 wherein ovulation in the patient was induced with human chorionic gonadotrophin (HCG) on Dec. 14, 1995. The patients LH, FSH, progesterone, and oestradiol levels were also measured after HCG treatment through ovum pick up (OPU; Dec. 16, 1995), and embryo transfer (ET) on […]. Hormone levels were also measured on the 4th and (Dec. 22, 1995) and 16th day after ET(Jan. 3,1996).
238 patients were treated with Cetrorelix by subcutaneous injection of Cetrorelix Acetat-Lyophilisat.
134 patients were treated with multiple doses and 104 patients with single or dual doses. The multiple doses are 0.25 mg/day or higher. […]

premature LH surges = conditions: short term treatment, first clinical trials; cited from earlier work
[1] = system: follicular growth / pituitary; assay: Animal experiments and clinical studies with Cetrorelix in normal, unstimulated cycles; format: in vivo
Source text: These low dosage levels present new possibilities for manipulating the time of ovulation during a normal, not exogenous gonadotropin-stimulated cycle, without affecting the viability of the growing follicle. In case of inadequate follicular growth related to treatment with LHRH-antagonists, low dose and short term administration of gonadotrophin or other trophic compounds will compensate for these effects. Subsequently, by stopping the LHRH-antagonist treatment, it is possible to let the normal ovulation occur or to induce ovulation by exogenous manipulation, if necessary. Ovulation induction was induced by the administration of standard HCG or by administration of LHRH and/or LHRH agonistic analogs. These described treatment alternatives are a departure from existing protocols, since they are possible only if preceded by treatment for LH-surge-control with an LHRH-antagonist. In animal and clinical studies with Cetrorelix it was shown that the responsiveness of the pituitary to LHRH or agonistic analogs is preserved under these conditions of treatment. Without this treatment, the pituitary cannot respond after agonistic pretreatment for LH-surge control due to receptor down-regulation. In addition, the possible use of ovulation inducing agents other than HCG results in a-reduced incidence of ovarian hyperstimulation syndrome.

[2] = system: controlled ovarian stimulation (COS); assay: Combination of Cetrorelix, clomifen citrate and gonadotrophins for hormonal stimulation for IVF/ICSI; format: in vivo, human; conditions: for fertilization rates: ICSI
Experimental: Combination of the GnRH antagonist Cetrorelix, clomifen citrate(CC) and gonadotrophins for hormonal stimulation for IVF/ICSI. New controlled ovarian stimulation (COS) protocols become possible, which combine the advantages of clomifen citrate/gonadotrophin stimulation and pituitary suppression with Cetrorelix. COS was started on day 2 after spontaneous menstrual bleeding using 100 mg CC per day for 5 or 7 days. The antagonist Cetrorelix (0.25 mg s.c.) was given starting on stimulation day 6 combined with either urinary hMG or recombinant FSH (3 ampoules/d) in a prospective randomized way. After two days of gonadotrophin injection, the dose was individualized. Human chorionic gonadotropin was given for ovulation induction, if at least 3 follicles were ≧17 mm in diameter. In total, 30 patients were included in the study. 15 were randomized in each group. Intra cytoplasmatic sperm injection (ICSI) was applied in each case.

[3] = all phase II patients, both regimens
[4] = single patient, dual dose regimen of 3 mg s.c.

CC(=O)N[C@H](Cc1ccc2ccccc2c1)C(=O)N[C@H](Cc1ccc(Cl)cc1)C(=O)N[C@H](Cc1cccnc1)C(=O)N[C@@H](CO)C(=O)N[C@@H](Cc1ccc(O)cc1)C(=O)N[C@H](CCCNC(N)=O)C(=O)N[C@@H](CC(C)C)C(=O)N[C@@H](CCCNC(=N)N)C(=O)N1CCC[C@H]1C(=O)N[C@H](C)C(N)=O [Cetrorelix] (Ac-[d2Nal][dPhe(4-Cl)][d3Pal]SY[dCit]LRP[dA]-NH2)
fertilization rates, follicle and oocytes quality (premature LH surge; after both posologies (single and multiple dose)): good fertilization rates | pregnancy rates (premature LH surge; after both treatments (single and multiple dose)): good | babies born by the end of May 1996 (premature LH surge; all patients): 25 | pregnancies obtained (number) (premature LH surge; [3]): 71 pregnancies | pregnancies obtained (rate) (premature LH surge; [3]): 30% | babies born (premature LH surge; following multiple doses): 15 | babies born by the end of May 1996 (premature LH surge; following multiple doses): 7 | babies born (premature LH surge; following single/dual doses): 29 | babies born by the end of May 1996 (premature LH surge; following single/dual doses): 18 | pregnancies (rate) (premature LH surge; multiple dose regimen, 134 patients): 28.4% | pregnancies (number) (premature LH surge; multiple dose regimen, of 134 patients): 38 | minimal effective dose, Dose/Day (premature LH surge; multiple dose, 3-7/14 days): 0.25 min. effect, dose mg | no effect dose, Dose/Day (premature LH surge; multiple dose, 3-7/14 days): 0.10 no effect. dose mg | premature LH surge (premature LH surge; patients undergoing COS/ART, multiple doses of 0.25 mg or higher or single dose of 3 mg or higher, s.c.): prevention of any premature LH surge; also recorded: No premature LH surge | minimal effective dose, Dose/Day (premature LH surge; single dose (1 day)): 3 min. effective dose mg | no effect dose, Dose/Day (premature LH surge; single dose (1 day)): 2 no effect. Dose mg | duration of effect to prevent a premature LH surge (premature LH surge; single dose regimen, one injection of 3 mg): up to 6.5 days | FSH secretion (FIG. 1) (premature LH surge; [4]): maintained at a natural level | individual estrogen development (FIG. 1) (premature LH surge; [4]): not affected | premature LH surge (FIG. 1) (premature LH surge; [4]): absolute prevention of any premature LH surge | pregnancies (rate) (premature LH surge; single/dual dosage regimen, 104 patients): 31.7% | pregnancies (number) (premature LH surge; single/dual dosage regimen, of 104 patients): 33 | premature LH surges during stimulated cycles (premature LH surges): complete avoidance of premature LH surges | normal, unstimulated follicular growth ([1]; multiple or single injections, extremely low dosage levels): arrest of the normal, unstimulated follicular growth | responsiveness of the pituitary to LHRH or agonistic analogs ([1]; under LH-surge-control treatment with the antagonist): preserved | ovarian hyperstimulation syndrome (OHSS) ([2]; 30 patients, both groups): no case of OHSS was observed | clinical pregnancy rate/transfer ([2]; hMG group): 4/14 | metaphase II oocytes ([2]; hMG group): 74% | oocytes per cycle retrieved ([2]; hMG group): 7.7±3.8 | transfer rate/cycle ([2]; hMG group): 87% | fertilization rates ([2]; hMG group): 42% | clinical pregnancy rate/transfer ([2]; recombinant FSH group): 1/11 | metaphase II oocytes ([2]; recombinant FSH group): 80% | oocytes per cycle retrieved ([2]; recombinant FSH group): 6.4±2.6 | transfer rate/cycle ([2]; recombinant FSH group): 80% | fertilization rates ([2]; recombinant FSH group): 53%
